Where “and” joins values, the source holds several entries; their conditions need not be identical. Equal values may be shown once. Read-outs that look alike come from different tables or passages of the source.
Columns and labels:
[1] = system: E. coli (GM 7359) alkA tag E. coli mutant; assay: Bacterial survival, toxin streptozotocin and antidotes; conditions: 60 minutes
Method: (§2) Bacteria were inoculated and cultured in nutrient agar for eighteen hours, using a shaking incubator at 140 r.p.m and 35° C. Medium contained 10 mM HEPES buffer at pH 7. Cells were centrifuged twice in Sorval RC-5 centrifuge 12,000 r.pm.×15 minutes at 4° C. and washed twice in 10 uM HEPES buffer. The resuspended cells were counted using a Hemocrit and diluted to a level of 5×10^1 cells per ml in 10 μM HEPES. The cells, the following toxins; methyl viologen (paraquat), methyl viologen (MPP^+), rotenone, daizoxide, streptozotocin and alloxan, and antidotes were added, reaching final volumes of 1 ml in Eppendorf tubes and placed on a rotator at room temperature. 10 μM diethylenetriaminepentaacetic acid was added to the samples to terminate the reactions at the specified times of either twenty or sixty minutes. 300 μL of cells were plated on Petri plates containing nutrient agar and incubated at 35° C. overnight. Colonies were counted after 20 hours. Percentage survival as compared with culture controls is calculated from the means of triplicates in each experimental group.

S. aureus (ATCC 29213) [2] = assay: Bacterial survival, toxin diazoxide and antidotes; assay type: cell-based; conditions: 60 minutes
Method: (§1) Medium contained 10 mM HEPES buffer at pH 7. […] Colonies were counted after 20 hours.

M. Luteus (ATCC 499732) = assay: Bacterial survival, toxin diazoxide and antidotes
Method: as §2

[3] = system: E. coli (GM 7359) alkA tag E. coli mutant; conditions: 60 minutes
Method: as §2

E. coli (ATCC 35150) = assay type: cell-based
Method: as §1

[4] = system: E. coli (GM 7359) alkA tag E. coli mutant; conditions: 60 minutes; remark: listed apart in the source
Method: as §2

[5] = Oil water partition coefficients (octanol/water, HPLC); assay type: physicochemical; conditions: 1:1 octanol/water, shaken 12 hours, HPLC
Method: Partition coefficients were determined by dissolving the compound in a 1:1 mixture of octanol/water and shaking the solution for 12 hours. HPLC was used to determine the partition coefficient. The reported values are the log of the octanol/water partition

S. aureus (ATCC 29213) [6] = assay: Bacterial survival, toxin MPP^+ and antidotes; conditions: 60 minutes
Method: as §2

[7] = pKa by potentiometric titration; assay type: physicochemical; conditions: aqueous solution, ionic strength 0.10, 25° C.
Method: PKa's were determined by standard potentiometric titration methods in aqueous solution with an ionic strength of 0.10 at 25° C. Values are reported as log K values of the equilibrium constant.

[8] = 0.2 mM Diazoxide + 12.5 uM antidote, T60
[9] = 0.2 mM Diazoxide + 100 uM antidote, T60
[10] = substance alone 100 uM, T20 (20 minutes)
[11] = substance alone 100 uM, T60 (60 minutes)
[12] = 0.2 mM Diazoxide + 1 uM antidote, T60
[13] = 0.2 mM Diazoxide + 5 uM antidote, T60
[14] = 0.2 mM Diazoxide + 10 uM antidote, T60
[15] = 0.2 mM Diazoxide + 200 uM antidote, T60
[16] = substance alone 200 uM, T20 (20 minutes)
[17] = substance alone 200 uM, T60 (60 minutes)
[18] = 0.2 mM Diazoxide + 1 uM antidote, T20
[19] = 0.2 mM Diazoxide + 2.5 uM antidote, T20
[20] = 0.2 mM Diazoxide + 2.5 uM antidote, T60
[21] = 100 uM Streptozotocin + 5 uM antidote
[22] = 0.15 mM Diazoxide + 5 uM antidote
[23] = 0.2 mM Diazoxide + 50 uM antidote, T20
[24] = 100 uM Rotenone + 2.5 uM antidote
[25] = 100 uM Rotenone + 5 uM antidote

Compound: CN(N=O)C(=O)N[C@H]1C(O)O[C@H](CO)[C@@H](O)[C@@H]1O (stereo partly drawn) [Streptozotocin, N-(methylnitrosocarbamoyl)-Dglucosamine, reference compound]
- Mean % Survival ([1]; substance alone 100 uM): 57%

Compound: CC1=NS(=O)(=O)c2cc(Cl)ccc2N1 [Diazoxide, reference compound]
- Mean % Survival (S. aureus (ATCC 29213) [2]; substance alone 0.15 mM): 25%
- Mean % Survival (M. Luteus (ATCC 499732); substance alone 0.2 mM, T20 (20 minutes)): 22%
- Mean % Survival (M. Luteus (ATCC 499732); substance alone 0.2 mM, T60 (60 minutes)): 1%

Compound: C=C(C)[C@H]1Cc2c(ccc3c2O[C@@H]2COc4cc(OC)c(OC)cc4[C@@H]2C3=O)O1 [Rotenone, reference compound]
- Mean % Survival ([3]; substance alone 100 uM): 60%

Compound: NCCSCCCSCCN [2,3,2-sulfur, 2-[3-(2-aminoethylthio)propylthio]ethylamine]
- Mean % Survival (M. Luteus (ATCC 499732); [8]): 32%
- Mean % Survival (M. Luteus (ATCC 499732); [9]): 67%
- Mean % Survival (M. Luteus (ATCC 499732); [10]): 100%
- Mean % Survival (M. Luteus (ATCC 499732); [11]): 100%

Compound: Vanadyl (1,4,8,11-tetraaza-1,4,8,11-tetrabicyclo[3.3.1]non-3-ylcyclotetradecane)(Cl)2 [Vanadium Cyclam Adamantane]
- Mean % Survival (M. Luteus (ATCC 499732); [12]): 100%
- Mean % Survival (M. Luteus (ATCC 499732); [13]): 100%
- Mean % Survival (M. Luteus (ATCC 499732); [14]): 100%
- Mean % Survival (M. Luteus (ATCC 499732); 0.2 mM Diazoxide + 50 uM antidote, T60): 100%
- Mean % Survival (M. Luteus (ATCC 499732); [15]): 100%
- Mean % Survival (M. Luteus (ATCC 499732); [16]): 100%
- Mean % Survival (M. Luteus (ATCC 499732); [17]): 100%

Compound: NCCCCNCCCN [Spermidine, reference compound]
- Mean % Survival (M. Luteus (ATCC 499732); [18]): 100%
- Mean % Survival (M. Luteus (ATCC 499732); [12]): 96%
- Mean % Survival (M. Luteus (ATCC 499732); [19]): 100%
- Mean % Survival (M. Luteus (ATCC 499732); [20]): 100%
- Mean % Survival (M. Luteus (ATCC 499732); 0.2 mM Diazoxide + 200 uM antidote, T20): 100%
- Mean % Survival (M. Luteus (ATCC 499732); [16]): 100%
- Mean % Survival (M. Luteus (ATCC 499732); [17]): 100%
- Mean % Survival [1, 21]: 87%
- Mean % Survival ([1]; substance alone 5 uM): 97%

Compound: NCCCNCCCCNCCCN [Spermine]
- Mean % Survival (S. aureus (ATCC 29213) [2]; [22]): 71%
- Mean % Survival (S. aureus (ATCC 29213) [2]; substance alone 5 uM): 99%
- Mean % Survival (E. coli (ATCC 35150)): 100% and 96% and 60%

Compound: O=C1NC(=O)C(=O)C(=O)N1 [Alloxan, reference compound]
- Mean % Survival ([4]; substance alone 2 mM): 20%

Compound: 1,4,8,11-tetraaza-1,4,8,11-tetra(2-piperidylethyl)cyclotetradecane [cyclam-piperidine]
- Log Partition Coefficient Octanol:Water [5]: 0.7

Compound: 1,4,8,11-tetraaza-1,4,8,11-tetrabicyclo[3.3.1]non-3-ylcyclotetradecane [Cyclam Adamantane]
- Mean % Survival (S. aureus (ATCC 29213) [6]; 0.2 mM MPP^+ + 1 uM antidote): 100%
- Mean % Survival (S. aureus (ATCC 29213) [6]; 0.2 mM MPP^+ + 2.5 uM antidote): 100%
- Mean % Survival (S. aureus (ATCC 29213) [6]; 0.2 mM MPP^+ + 5.0 uM antidote): 100%
- Mean % Survival (S. aureus (ATCC 29213) [6]; 0.2 mM MPP^+ + 7.5 uM antidote): 100%
- Mean % Survival (S. aureus (ATCC 29213) [6]; substance alone 30 uM): 100%
- Mean % Survival (M. Luteus (ATCC 499732); 0.2 mM Diazoxide + 12.5 uM antidote, T20): 100%
- Mean % Survival (M. Luteus (ATCC 499732); [8]): 100%
- Mean % Survival (M. Luteus (ATCC 499732); [23]): 100%
- Mean % Survival (M. Luteus (ATCC 499732); 0.2 mM Diazoxide + 100 uM antidote, T20): 100%
- Mean % Survival (M. Luteus (ATCC 499732); [9]): 100%
- Mean % Survival (M. Luteus (ATCC 499732); [10]): 100%
- Mean % Survival (M. Luteus (ATCC 499732); [11]): 100%
- Mean % Survival ([4]; 2 mM Alloxan + 2.5 uM antidote): 100%
- Mean % Survival ([4]; 2 mM Alloxan + 10 uM antidote): 100%
- Mean % Survival ([4]; substance alone 10 uM): 100%
- Mean % Survival [3, 24]: 97%
- Mean % Survival [3, 25]: 89%
- Mean % Survival ([3]; 100 uM Rotenone + 12.5 uM antidote): 100%
- Mean % Survival ([3]; substance alone 25 uM): 100%
- Mean % Survival ([1]; 100 uM Streptozotocin + 1 uM antidote): 93%
- Mean % Survival [1, 21]: 100%
- Mean % Survival ([1]; 100 uM Streptozotocin + 12.5 uM antidote): 100%
- Mean % Survival ([1]; substance alone 12.5 uM): 100%

Compound: CN1CCCN(C)CCN(C)CCCN(C)CC1 [cyclam-methylated, 1,4,8,11-tetraaza-1,4,8,11-tetramethylcyclotetradecane]
- pKa ([7]; read-out: pKa(1)): 9.7
- pKa ([7]; read-out: pKa(2)): 9.3
- pKa ([7]; read-out: pKa(3)): 3.1
- pKa ([7]; read-out: pKa(4)): 2.6

Compound: CNCCNCCCNCCNC [2,3,2-methylated on N1/N4, N,N′″-dimethyl 2,3,2-tetramine]
- Log Partition Coefficient Octanol:Water [5]: 0.4

Compound: [2-(bicyclo[3.3.1]non-3-ylamino)ethyl](3-{2-(bicyclo[3.3.1]non-3-ylamino)ethyl]amino}propyl)amine [2,3,2-tetramine adamantane]
- Mean % Survival ([4]; 2 mM Alloxan + 1 uM antidote): 51%
- Mean % Survival ([4]; 2 mM Alloxan + 100 uM antidote): 69%
- Mean % Survival ([4]; substance alone 100 uM): 100%

Compound: N[C@@H](Cc1c[nH]cn1)C(=O)O [Histidine, reference compound]
- Mean % Survival (S. aureus (ATCC 29213) [2]; 0.15 mM Diazoxide + 500 uM antidote): 58%
- Mean % Survival (S. aureus (ATCC 29213) [2]; substance alone 0.5 mM): 100%
- Mean % Survival (S. aureus (ATCC 29213) [6]; 0.15 mM MPP^+ + 0.5 mM antidote): 64%
- Mean % Survival (S. aureus (ATCC 29213) [6]; substance alone 0.5 mM): 90%
- Mean % Survival (M. Luteus (ATCC 499732); [15]): 54%
- Mean % Survival (M. Luteus (ATCC 499732); [16]): 100%
- Mean % Survival (M. Luteus (ATCC 499732); [17]): 100%
- Mean % Survival (E. coli (ATCC 35150)): 30%
- Mean % Survival (E. coli (ATCC 35150); 0.5 mM Paraquat + 1.0 mM antidote, 60 minutes): 37%
- Mean % Survival (E. coli (ATCC 35150); substance alone 0.5 mM, 60 minutes): 100%
- Mean % Survival (E. coli (ATCC 35150); substance alone 1 mM, 60 minutes): 100%

Compound: (2-piperidylethyl)-{3-[(2-piperidylethyl)amino]propyl}amine [2,3,2-piperidine]
- Mean % Survival (S. aureus (ATCC 29213) [2]; 0.15 mM Diazoxide + 2.5 uM antidote): 100%
- Mean % Survival (S. aureus (ATCC 29213) [2]; [22]): 91%
- Mean % Survival (S. aureus (ATCC 29213) [2]; 0.15 mM Diazoxide + 10 uM antidote): 92%
- Mean % Survival (S. aureus (ATCC 29213) [2]; substance alone 10 uM): 100%
- Mean % Survival (S. aureus (ATCC 29213) [6]; 0.25 mM MPP^+ + 1uM antidote): 54%
- Mean % Survival (S. aureus (ATCC 29213) [6]; 0.25 mM MPP^+ + 2uM antidote): 54%
- Mean % Survival (S. aureus (ATCC 29213) [6]; 0.25 mM MPP^+ + 5uM antidote): 69%
- Mean % Survival (S. aureus (ATCC 29213) [6]; 0.25 mM MPP^+ + 7uM antidote): 100%
- Mean % Survival (S. aureus (ATCC 29213) [6]; substance alone 7.5 uM): 100%
- Mean % Survival (M. Luteus (ATCC 499732); [18]): 81%
- Mean % Survival (M. Luteus (ATCC 499732); [19]): 81%
- Mean % Survival (M. Luteus (ATCC 499732); [20]): 41%
- Mean % Survival (M. Luteus (ATCC 499732); 0.2 mM Diazoxide + 5 uM antidote, T20): 100%
- Mean % Survival (M. Luteus (ATCC 499732); [13]): 100%
- Mean % Survival (M. Luteus (ATCC 499732); 0.2 mM Diazoxide + 10 uM antidote, T20): 100%
- Mean % Survival (M. Luteus (ATCC 499732); [14]): 100%
- Mean % Survival (M. Luteus (ATCC 499732); 0.2 mM Diazoxide + 20 uM antidote, T20): 100%
- Mean % Survival (M. Luteus (ATCC 499732); 0.2 mM Diazoxide + 20 uM antidote, T60): 100%
- Mean % Survival (M. Luteus (ATCC 499732); [23]): 100%
- Mean % Survival (M. Luteus (ATCC 499732); substance alone 50 uM, T20 (20 minutes)): 100%
- Mean % Survival (M. Luteus (ATCC 499732); substance alone 50 uM, T60 (60 minutes)): 100%
- pKa(1) [7]: 9.9
- pKa(2) [7]: 9.3
- pKa(3) [7]: 6.4
- pKa(4) [7]: 3.6
- Mean % Survival [3, 24]: 100%
- Mean % Survival [3, 25]: 100%
- Mean % Survival ([3]; 100 uM Rotenone + 20 uM antidote): 100%
- Mean % Survival ([3]; 100 uM Rotenone + 50 uM antidote): 100%
- Mean % Survival ([3]; substance alone 50 uM): 100%
- Mean % Survival ([1]; 100 uM Streptozotocin + 2.5 uM antidote): 70%
- Mean % Survival [1, 21]: 100%
- Mean % Survival ([1]; 100 uM Streptozotocin + 20 uM antidote): 100%
- Mean % Survival ([1]; substance alone 20 uM): 100%

Compound: C[n+]1ccc(-c2ccccc2)cc1 [MPP^+, reference compound]
- Mean % Survival (S. aureus (ATCC 29213) [6]; substance alone 0.1 mM): 31%
- Mean % Survival (S. aureus (ATCC 29213) [6]; substance alone 0.15 mM): 15%
- Mean % Survival (S. aureus (ATCC 29213) [6]; substance alone 0.2 mM): 6%
- Mean % Survival (S. aureus (ATCC 29213) [6]; substance alone 0.25 mM): 3%

Compound: CNCCN(C)CCCN(C)CCNC [2,3,2-tetramethyl, N,N′,N″,N′″-tetramethyl 2,3,2-tetramine]
- pKa(1) [7]: 10.2
- pKa(2) [7]: 9.4
- pKa(3) [7]: 6.1
- pKa(4) [7]: 2.9

Source: US20140057877A1, “Therapeutic polyamine compositions and their synthesis” (priority 2002, published 2014)
